Experimental data reported in ChEMBL document CHEMBL1201862, “PubChem BioAssay data set” (2004).
Calls of active or inactive are those of the source. Rule as the data show it, for most assays here: actives have a measured EC50 and inactives only a lower limit.

What was measured:
cells [1] = assay type: functional, cell-based
cells [2] = assay type: functional, cell-based; remark: listed apart in the source
[3] = inhibitors of firefly luciferase expression or activity, dose response, H4 neuroglioma cells, luminescence (AID 1990); assay type: functional, cell-based
[4] = Luminescence Cell-Based Dose Response HTS to Identify Inhibitors of 5'UTR Stem-Loop Driven Prion Protein mRNA Translation in H4 Neuroglioblastoma Cells. [Related pubchem assays: 1827 (Project Summary), 1813 (Primary HTS)]; assay type: functional
[5] = inhibitors of SNCA 5'UTR-driven reporter translation, confirmation, H4 neuroglioma cells, luminescence (AID 1988); assay type: functional, cell-based
[6] = inhibitors of intracellular T. cruzi replication, confirmation, NIH3T3 host cells, beta-gal luminescence (AID 2044); assay type: functional, cell-based;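 also: intracellular parasites grown in NIH/3T3 mouse fibroblasts as host cells; luminescent beta-galactosidase reporter signal from transgenic T. cruzi replicating inside host cells; inhibitors lower the luminescence signal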
[7] = cytotoxicity toward NIH3T3 fibroblasts, dose response, counter-screen, cell-based, ATP luminescence, mouse fibroblasts (AID 2010); assay type: functional;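 also: cells exposed to compound for about 90 hours before reading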
INS1 = test: beta cell apoptosis inhibitors, cytokine rescue, dose response, luminescence, retest (AID 449756); assay type: functional, cell-based; conditions: Rattus norvegicus;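 also: cell death triggered by IL-1 beta plus TNF-alpha plus IFN-gamma mixture; protective hits raise ATP signal compared with cytokine alone wells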
[8] = system: Streptococcus sp. 'group A'; test: growth inhibition of control SK(-) GAS strain, dose response, counter-screen for streptokinase expression inhibitor project, luminescence, kanamycin, BacTiterGlo, confirmation (AID 1900); assay type: functional, organism-based
Streptokinase A = target: T1, Streptokinase A (Streptococcus pyogenes serotype M1, UniProt P10520); test: S. pyogenes streptokinase expression inhibitors, potency, dose response, plasminogen activation absorbance, OD405 (AID 1914); assay type: functional, Streptococcus pyogenes M1 GAS;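 also: secreted streptokinase activity via plasminogen activation per viability signal from cell pellet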
T1 sequence (P10520 whole entry): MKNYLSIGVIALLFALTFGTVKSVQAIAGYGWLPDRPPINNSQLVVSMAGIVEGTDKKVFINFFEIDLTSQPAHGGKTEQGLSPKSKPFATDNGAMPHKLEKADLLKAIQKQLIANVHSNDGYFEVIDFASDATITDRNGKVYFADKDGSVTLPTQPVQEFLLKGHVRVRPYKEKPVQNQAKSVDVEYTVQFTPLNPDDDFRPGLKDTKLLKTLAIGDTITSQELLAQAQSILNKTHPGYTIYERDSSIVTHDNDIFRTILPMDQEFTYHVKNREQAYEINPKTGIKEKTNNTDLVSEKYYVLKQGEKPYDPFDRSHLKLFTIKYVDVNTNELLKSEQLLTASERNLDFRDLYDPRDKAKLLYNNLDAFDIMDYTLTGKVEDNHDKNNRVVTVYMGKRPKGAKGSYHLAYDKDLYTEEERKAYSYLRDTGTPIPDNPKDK

Streptococcus = test: Group A Streptococcus viability loss, dose response, counter-screen for streptokinase expression inhibitor project, luminescence, BacTiterGlo (AID 1915); assay type: functional, organism-based;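 also: potency for reduction of bacterial viability or growth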
[9] = target: T2, Heat shock factor protein 1 (Mus musculus, UniProt P38532); test: inhibition of MG132-induced HSE-luciferase signal, confirmation, cell-based, NIH3T3, luminescence, dose retest (AID 2382); assay type: functional;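 also: NIH3T3 fibroblasts with HSF1-driven luciferase reporter stressed by proteasome inhibitor MG132; luminescence from HSF1-driven luciferase expression after 8 hours of MG132 stress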
T2 sequence (P38532 whole entry): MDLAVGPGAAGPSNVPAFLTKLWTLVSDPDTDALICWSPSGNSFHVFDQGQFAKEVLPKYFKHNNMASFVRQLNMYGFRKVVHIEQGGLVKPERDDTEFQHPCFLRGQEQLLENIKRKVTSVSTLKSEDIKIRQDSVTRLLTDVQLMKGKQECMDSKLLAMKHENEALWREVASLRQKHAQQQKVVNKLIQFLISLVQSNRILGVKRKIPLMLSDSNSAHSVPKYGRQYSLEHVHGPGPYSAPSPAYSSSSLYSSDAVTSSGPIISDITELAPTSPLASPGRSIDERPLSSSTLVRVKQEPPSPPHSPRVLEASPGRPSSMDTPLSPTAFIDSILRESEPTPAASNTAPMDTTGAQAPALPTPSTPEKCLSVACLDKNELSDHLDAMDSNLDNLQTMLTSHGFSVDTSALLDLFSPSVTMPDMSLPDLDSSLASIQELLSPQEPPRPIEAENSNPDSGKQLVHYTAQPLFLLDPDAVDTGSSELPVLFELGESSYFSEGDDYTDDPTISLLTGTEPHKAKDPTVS

[10] = P. falciparum Dd2 growth inhibitors, dose response, SYBR Green, cherry-picked samples (AID 1159567); assay type: functional, cell-based

COc1ccc(F)cc1CSc1nnnn1-c1ccc(O)cc1
EC50 (cells [1]): > 350 µM (not active)
EC50 (cells [2]): > 350 µM (not active)

COCCn1c(=O)c2c(nc3n2CC(C)CN3CCc2ccccc2)n(C)c1=O (stereo not given)
EC50 [3]: > 120 µM (not active)
EC50 [4]: > 120 µM (not active)
EC50 [5]: > 120 µM (not active)

Cc1ccc(C[n+]2cccc(-c3ccccc3)c2)c(C)c1
EC50 [6]: 0.552 µM (active)
EC50 [7]: 11.9 µM (active)
AC50 (INS1): 4.24 µM (active)

COc1ccccc1N1CCN(Cc2c[nH]c3ccccc23)CC1
EC50 [3]: > 120 µM (not active)
EC50 [4]: 25.3 µM (active)
EC50 [5]: > 120 µM (not active)
EC50 [6]: 2.1 µM (active)
EC50 [7]: > 60 µM (not active)

Cc1cccc(/C=C2\Sc3ccc(C(=O)N4CCC(C)CC4)cc3N(C)C2=O)c1
EC50 [8]: 3.11 µM (active)
EC50 (Streptokinase A): 20.3 µM (active)
EC50 (Streptococcus): 7.54 µM (active)

CC(N=C(S)NC1CCCCC1)c1ccc(C(C)(C)C)cc1 (stereo not given)
AC50 (INS1): 6.14 µM (active)

O=C1CCCc2c1[nH]c1ccc(Br)cc21
EC50 [3]: < 0.1 µM (active)
EC50 [4]: 86.4 µM (active)
EC50 [5]: 9.02 µM (active)

CN(C)C(=O)c1ccc(NC(=O)c2cccc(S(=O)(=O)N3CCCCCC3)c2)cc1
AC50 (INS1): > 260 µM (inactive)

COC(=O)[C@H](CC(C)C)N(Cc1ccccc1)S(=O)(=O)N(Cc1ccccc1)[C@@H](CC(C)C)C(=O)OC
AC50 (INS1): 13.7 µM (active)

CC/N=C1\S/C(=C\c2ccc(-c3cccc(C(=O)O)c3)o2)C(=O)N1CC
EC50 [8]: 3.4 µM (active)
EC50 [9]: > 195 µM (not active)
EC50 (Streptokinase A): > 150 µM (not active)
EC50 (Streptococcus): 10.7 µM (active)

N#Cc1ccc(-c2ccc([C@H]3[C@@H](CO)N4C(=O)CN(C(=O)Cc5ccccc5)C[C@@H]34)cc2)cc1
AC50 [10]: 18.1 µM (active)

CCC(=O)N1CC2(C1)CN(S(=O)(=O)c1ccccc1)[C@@H](CO)c1[nH]c3cc(OC)ccc3c12
AC50 [10]: 5.43 µM (active)

CO[C@@H]1CN(C)C(=O)c2ccc(NC(=O)c3cc(C)on3)cc2OC[C@@H](C)N(S(=O)(=O)c2cccc(C)c2)C[C@H]1C
AC50 [10]: 4.07 µM (active)

C[C@@H]1CN([C@@H](C)CO)C(=O)c2cccc(NC(=O)c3cnccn3)c2O[C@@H]1CN(C)Cc1ccc(C(F)(F)F)cc1
AC50 [10]: 9.12 µM (active)

C[C@@H]1CN([C@@H](C)CO)C(=O)c2c(c3ccccc3n2C)-c2ccccc2CO[C@H]1CN(C)C(=O)Nc1ccccc1C(F)(F)F
AC50 [10]: 4.33 µM (active)

CO[C@H]1CN(C)C(=O)c2cc(NC(=O)c3nc4ccccc4s3)ccc2OC[C@H](C)NC[C@@H]1C
AC50 [10]: 13.5 µM (active)

CC(C)(C)NC(=O)N1c2ccccc2Sc2ccccc21
EC50 [3]: 15.3 µM (active)
EC50 [4]: > 120 µM (not active)
EC50 [5]: 112 µM (active)
